ChEMBL document CHEMBL1145723, “Metabolic cleavage of frangufoline in rodents: in vitro and in vivo study” (J Nat Prod, 1997)
Each block holds one molecule with its values, some of them ahead of it.

What was measured:
Serum [1] = assay: Metabolic stability in Sprague-Dawley rat serum assessed as formation of (S)-(N,N-dimethylphenylalanyl)-(2S,3S)-3[(p-formylphenoxyl)leucyl]-(S)-leucine) after 30 mins by HPLC; type: ADME, cell-free; settings: 0.5 h
Serum [2] = assay: Metabolic stability in Sprague-Dawley rat serum assessed as initial rate of compound cleavage at 0.10 mM after 10 mins by HPLC; type: ADME, cell-free; settings: 100 µM
Serum [3] = assay: Metabolic stability in Sprague-Dawley rat serum assessed as initial rate of compound cleavage at 0.10 mM after 10 mins by HPLC in presence of 2 mM (phenylmethyl)sulfonyl fluoride; type: ADME, cell-free; settings: 100 µM
Serum [4] = assay: Metabolic stability in Sprague-Dawley rat serum assessed as initial rate of compound cleavage at 0.10 mM after 10 mins by HPLC in presence of 2 mM EDTA; type: ADME, cell-free; settings: 100 µM
Serum [5] = assay: Metabolic stability in Sprague-Dawley rat serum assessed as initial rate of compound cleavage at 0.10 mM after 10 mins by HPLC in presence of 2 mM p-chloromercuribenzoic acid; type: ADME, cell-free; settings: 100 µM
Serum [6] = assay: Metabolic stability in Sprague-Dawley rat serum assessed as formation of (S)-(N,N-dimethylphenylalanyl)-(2S,3S)-3[(p-formylphenoxyl)leucyl]-(S)-leucine) at 50 mg/kg, po after 30 mins by HPLC; type: ADME, organism-based; design: dose 50 mg/kg, route oral; settings: in vivo, 0.5 h
[7] = Metabolic stability in Sprague-Dawley rat intestinal fluid assessed as formation of (S)-(N,N-dimethylphenylalanyl)-(2S,3S)-3[(p-formylphenoxyl)leucyl]-(S)-leucine) after 30 mins by HPLC; type: ADME; settings: simulated gi fluid, 0.5 h
Serum [8] = assay: Metabolic stability in Sprague-Dawley rat serum assessed as initial rate of compound cleavage at 0.10 mM after 10 mins by HPLC in presence of 2 mM bis-(p-nitrophenyl) phosphate; type: ADME, cell-free; settings: 100 µM
Serum [9] = assay: Metabolic stability in Sprague-Dawley rat serum assessed as initial rate of compound cleavage at 0.10 mM after 10 mins by HPLC in presence of 10 uM eserine; type: ADME, cell-free; settings: 100 µM
[10] = Metabolic stability in Sprague-Dawley rat gastric juice assessed as formation of (S)-(N,N-dimethylphenylalanyl)-(2S,3S)-3[(p-formylphenoxyl)leucyl]-(S)-leucine) after 30 mins by HPLC; type: ADME, tissue-based; settings: 0.5 h
Serum [11] = assay: Metabolic stability in bovine serum assessed as formation of (S)-(N,N-dimethylphenylalanyl)-(2S,3S)-3[(p-formylphenoxyl)leucyl]-(S)-leucine) after 1 hr by HPLC; type: ADME, cell-free, Bos taurus; settings: cattle
Serum [12] = assay: Metabolic stability in Sprague-Dawley rat serum up to 3 hrs; type: ADME, cell-free
Serum [13] = assay: Metabolic stability in Sprague-Dawley rat serum assessed as formation of (S)-(N,N-dimethylphenylalanyl)-(2S,3S)-3[(p-formylphenoxyl)leucyl]-(S)-leucine) at 25 mg/kg, po after 10 mins by HPLC; type: ADME, organism-based; design: dose 25 mg/kg, route oral; settings: in vivo
Serum [14] = assay: Metabolic stability in Sprague-Dawley rat serum assessed as formation of (S)-(N,N-dimethylphenylalanyl)-(2S,3S)-3[(p-formylphenoxyl)leucyl]-(S)-leucine) after 5 mins by HPLC; type: ADME, cell-free
Serum [15] = assay: Metabolic stability in mouse serum assessed as formation of (S)-(N,N-dimethylphenylalanyl)-(2S,3S)-3[(p-formylphenoxyl)leucyl]-(S)-leucine) after 1 hr by HPLC; type: ADME, cell-free
Serum [16] = assay: Metabolic stability in human serum assessed as formation of (S)-(N,N-dimethylphenylalanyl)-(2S,3S)-3[(p-formylphenoxyl)leucyl]-(S)-leucine) after 1 hr by HPLC; type: ADME, cell-free
Serum [17] = assay: Metabolic stability in Sprague-Dawley rat serum assessed as initial rate of compound cleavage at 0.10 mM after 10 mins by HPLC in presence of 2 mM eserine; type: ADME, cell-free; settings: 100 µM

Structure (SMILES): CC(C)C[C@H]1NC(=O)[C@@H](NC(=O)[C@H](Cc2ccccc2)N(C)C)[C@H](C(C)C)Oc2ccc(cc2)/C=C\NC1=O [SANJOININE AH1]
Activity (Serum [1]): Unstable

Structure (SMILES): CC(C)C[C@@H]1NC(=O)[C@@H](NC(=O)[C@H](Cc2ccccc2)N(C)C)[C@H](C(C)C)Oc2ccc(cc2)[C@@H](O)CNC1=O [SANJOININE G1]
Activity (Serum [1]): Stable

Results, then the molecule that gave them:

Activity (Serum [1]): Stable
Structure (SMILES): CC(C)C[C@@H]1NC(=O)[C@@H](NC(=O)[C@H](Cc2ccccc2)N(C)C)[C@H](C(C)C)Oc2ccc(cc2)CCNC1=O [DIHYDROSANJOININE A]

Stability (Serum [2]): 1.44 pmol/min/mg | Stability (Serum [3]): 1.3 pmol/min/mg | Stability (Serum [4]): 0.376 pmol/min/mg | Stability (Serum [5]): 1.34 pmol/min/mg | Stability (Serum [6]): Unstable | Stability [7]: Stable | Stability (Serum [8]): 0.116 pmol/min/mg | Stability (Serum [9]): 1.24 pmol/min/mg | Stability [10]: Stable | Stability (Serum [11]): Stable | Stability (Serum [12]): Stable | Stability (Serum [13]): Unstable | Stability (Serum [14]): Unstable | Stability (Serum [15]): Unstable | Stability (Serum [16]): Stable | Stability (Serum [17]): 0.352 pmol/min/mg | Stability (Serum [1]): Unstable
Structure (SMILES): CC(C)C[C@@H]1NC(=O)[C@@H](NC(=O)[C@H](Cc2ccccc2)N(C)C)[C@H](C(C)C)Oc2ccc(cc2)/C=C\NC1=O [FRANGUFOLINE]

Activity (Serum [1]): Stable
Structure (SMILES): CO[C@H]1CNC(=O)[C@H](CC(C)C)NC(=O)[C@@H](NC(=O)[C@H](Cc2ccccc2)N(C)C)[C@H](C(C)C)Oc2ccc1cc2 [SANJOININE D]
